# Reference: US10947213B1 (Merck Patent GmbH, priority 2015, dated 2021)
# Where a name gives a salt, the structure may show the parent alone.
# Molecular target: T1, TLR7/NFKb HEK cells (Homo sapiens, UniProt Q9NYK1)
# T1 construct: expressed in transfected cells; host or cells: HEK cells (TLR7/NFKb reporter line)
# T1 sequence (Q9NYK1 27-1049): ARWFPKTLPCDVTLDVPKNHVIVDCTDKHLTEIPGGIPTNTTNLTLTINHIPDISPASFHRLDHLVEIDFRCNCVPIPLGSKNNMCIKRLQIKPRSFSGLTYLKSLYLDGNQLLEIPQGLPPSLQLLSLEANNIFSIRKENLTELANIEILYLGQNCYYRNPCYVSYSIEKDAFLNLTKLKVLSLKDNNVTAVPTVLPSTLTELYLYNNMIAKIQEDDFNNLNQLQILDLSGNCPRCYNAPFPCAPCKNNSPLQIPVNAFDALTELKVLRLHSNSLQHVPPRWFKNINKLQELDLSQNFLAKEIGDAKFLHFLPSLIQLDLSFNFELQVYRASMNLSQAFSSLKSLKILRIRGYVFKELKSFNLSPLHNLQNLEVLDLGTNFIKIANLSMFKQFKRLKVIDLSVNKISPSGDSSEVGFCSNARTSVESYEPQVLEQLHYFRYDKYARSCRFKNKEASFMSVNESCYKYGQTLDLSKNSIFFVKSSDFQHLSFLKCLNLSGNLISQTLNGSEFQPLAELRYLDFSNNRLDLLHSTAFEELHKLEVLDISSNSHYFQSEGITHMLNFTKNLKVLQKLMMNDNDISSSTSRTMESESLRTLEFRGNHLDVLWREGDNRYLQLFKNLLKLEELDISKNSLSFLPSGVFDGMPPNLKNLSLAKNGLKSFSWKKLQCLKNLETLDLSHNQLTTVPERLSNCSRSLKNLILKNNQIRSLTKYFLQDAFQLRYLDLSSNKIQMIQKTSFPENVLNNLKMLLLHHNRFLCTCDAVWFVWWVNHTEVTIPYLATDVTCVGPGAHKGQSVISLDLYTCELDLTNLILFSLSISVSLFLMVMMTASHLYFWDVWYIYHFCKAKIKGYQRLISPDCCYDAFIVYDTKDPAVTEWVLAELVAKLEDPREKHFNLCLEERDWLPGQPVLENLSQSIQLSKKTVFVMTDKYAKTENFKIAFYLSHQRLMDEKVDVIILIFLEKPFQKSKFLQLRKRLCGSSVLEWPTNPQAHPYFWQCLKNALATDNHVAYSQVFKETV
# Assay: HEK Cell Assay (TLR7/NFKb reporter, Steady-Glo luciferase readout)
# Format: cell-based
# Settings: 30 min compound preincubation, then R*48 agonist for 5 hours, read-out: Potency
# Description: Example 142: HEK Cell Assay
# Into 384 CulturePlates (Corning 3707) was placed 5000 c/w of TLR7/NFKb HEK cells in 30 uL DMEM without Phenil red (gibco #31053) and 10% i.a. FCS and 2 mM L-ZGLutamin. The cells were incubated for 24 h at 37° C., 10% carbon dioxide and 90% relative humidity. 3 uL of controls, standards, and compounds were dispensed into wells, incubated for 30 min then 3 uL of R*48 agonist in 20 mM Hepes was added. After incubation for 5 hours, they were allowed to stand at room temperature for 15 min. To this was added 10 uL of Steady-Glo substrate reagent and shake assay plate for 5 min at 1500 rpm. The assay plate was allowed to sit for 30 min at room temperature and then the plate was read on EnVision.
row,IC50 [µM],SMILES
1,< 1,"N#Cc1ccc(N2CC(NC3CCC(O)CC3)CC(C(F)(F)F)C2)c2nccnc12 (single isomer, unassigned) [Compound 91, cis,cis-8-(3-((4-hydroxycyclohexyl)amino)-5-(trifluoromethyl)piperidin-1-yl)quinoxaline-5-carbonitrile]"
2,1 to 10,"N#Cc1ccc(N2CC(NC3CCC(O)CC3)CC(C(F)(F)F)C2)c2nccnc12 (single isomer, unassigned) [Compound 92, cis,trans-8-(-3-((4-hydroxycyclohexyl)amino)-5-(trifluoromethyl)piperidin-1-yl)quinoxaline-5-carbonitrile]"
3,> 10,"OC1CCC(NC2CC(C(F)(F)F)CN(c3ccnc4nccnc34)C2)CC1 (single isomer, unassigned) [Compound 93, cis,cis-4-((1-(pyrido[2,3-b]pyrazin-8-yl)-5-(trifluoromethyl)piperidin-3-yl)amino)cyclohexanol]"
4,> 10,"OC1CCC(NC2CC(C(F)(F)F)CN(c3ccnc4nccnc34)C2)CC1 (single isomer, unassigned) [Compound 94, trans,cis-4-((1-(pyrido[2,3-b]pyrazin-8-yl)-5-(trifluoromethyl)piperidin-3-yl)amino)cyclohexanol]"
5,1 to 10,"C[C@H]1C[C@@H](NC(=O)C(N)C(F)(F)F)CN(c2ccc(C#N)c3nccnc23)C1 (single isomer, unassigned) [Compound 112, hydrochloride]"
6,< 1,"C[C@H]1C[C@@H](NC(=O)C(N)C(F)(F)F)CN(c2ccc(C#N)c3nccnc23)C1 (single isomer, unassigned) [Compound 113, hydrochloride]"
7,> 10,"C[C@H]1C[C@@H](NC(=O)C(N)C(F)(F)F)CN(c2ccnc3nccnc23)C1 (single isomer, unassigned) [Compound 114, hydrochloride]"
8,< 1,"C[C@H]1C[C@@H](NC2CCN(C)C2=O)CN(c2ccc(C#N)c3nccnc23)C1 (single isomer, unassigned) [Compound 124]"
9,< 1,"C[C@H]1C[C@@H](NC2CCN(C)C2=O)CN(c2ccc(C#N)c3nccnc23)C1 (single isomer, unassigned) [Compound 125]"
10,< 1,"C[C@H]1C[C@@H](NC2CCC(O)CC2)CN(c2ccc(C#N)c3nccnc23)C1 (single isomer, unassigned) [Compound 135]"
11,< 1,"C[C@H]1C[C@@H](NC2CCC(O)CC2)CN(c2ccc(C#N)c3nccnc23)C1 (single isomer, unassigned) [Compound 136]"
12,< 1,"C[C@H]1C[C@@H](NC(=O)CC(O)C(C)(C)C)CN(c2ccc(C#N)c3nccnc23)C1 (single isomer, unassigned) [Compound 146]"
13,< 1,"C[C@H]1C[C@@H](NC(=O)CC(O)C(C)(C)C)CN(c2ccc(C#N)c3nccnc23)C1 (single isomer, unassigned) [Compound 147]"
14,> 10,"C[C@H]1C[C@@H](NC(=O)CC(O)C(C)(C)C)CN(c2ccnc3nccnc23)C1 (single isomer, unassigned) [Compound 148]"
15,> 10,"C[C@H]1C[C@@H](NC(=O)CC(O)C(C)(C)C)CN(c2ccnc3nccnc23)C1 (single isomer, unassigned) [Compound 149]"
16,< 1,"CCC(C)CC(=O)N[C@@H]1C[C@H](C)CN(c2ccc(C#N)c3nccnc23)C1 (single isomer, unassigned) [Compound 150]"
17,< 1,"CCC(C)CC(=O)N[C@@H]1C[C@H](C)CN(c2ccc(C#N)c3nccnc23)C1 (single isomer, unassigned) [Compound 151]"
18,1 to 10,"CCC(C)CC(=O)N[C@@H]1C[C@H](C)CN(c2ccnc3nccnc23)C1 (single isomer, unassigned) [Compound 152]"
19,1 to 10,"CCC(C)CC(=O)N[C@@H]1C[C@H](C)CN(c2ccnc3nccnc23)C1 (single isomer, unassigned) [Compound 153]"
20,< 1,"CCC(C)C(=O)N[C@@H]1C[C@H](C)CN(c2ccc(C#N)c3nccnc23)C1 (single isomer, unassigned) [Compound 154]"
21,1 to 10,"CCC(C)C(=O)N[C@@H]1C[C@H](C)CN(c2ccc(C#N)c3nccnc23)C1 (single isomer, unassigned) [Compound 155]"
22,> 10,"CCC(C)C(=O)N[C@@H]1C[C@H](C)CN(c2ccnc3nccnc23)C1 (single isomer, unassigned) [Compound 156]"

row,IC50 [µM],SMILES
1,> 10,"CCC(C)C(=O)N[C@@H]1C[C@H](C)CN(c2ccnc3nccnc23)C1 (single isomer, unassigned) [Compound 157]"
2,1 to 10,"COC(C)C(=O)N[C@@H]1C[C@H](C)CN(c2ccc(C#N)c3nccnc23)C1 (single isomer, unassigned) [Compound 158]"
3,1 to 10,"COC(C)C(=O)N[C@@H]1C[C@H](C)CN(c2ccc(C#N)c3nccnc23)C1 (single isomer, unassigned) [Compound 159]"
4,> 10,"COC(C)C(=O)N[C@@H]1C[C@H](C)CN(c2ccnc3nccnc23)C1 (single isomer, unassigned) [Compound 160]"
5,> 10,"COC(C)C(=O)N[C@@H]1C[C@H](C)CN(c2ccnc3nccnc23)C1 (single isomer, unassigned) [Compound 161]"
6,1 to 10,"CC(C)[C@H](O)C(=O)NC1CC(C2CC2)CN(c2ccc(C#N)c3nccnc23)C1 (single isomer, unassigned) [Compound 173]"
7,> 10,"CC(C)[C@H](O)C(=O)NC1CC(C2CC2)CN(c2ccc(C#N)c3nccnc23)C1 (single isomer, unassigned) [Compound 174]"
8,1 to 10,"N#Cc1ccc(N2CC(NC(=O)C(N)C(F)(F)F)CC(C3CC3)C2)c2nccnc12 (single isomer, unassigned) [Compound 177]"
9,1 to 10,"N#Cc1ccc(N2CC(NC(=O)C(N)C(F)(F)F)CC(C3CC3)C2)c2nccnc12 (single isomer, unassigned) [Compound 178]"
10,> 10,"C[C@H]1C[C@@H](NC(=O)C(N)C(F)(F)F)CN(c2ccc(C(N)=O)c3ncccc23)C1 (single isomer, unassigned) [Compound 184]"
11,> 10,"C[C@H]1C[C@@H](NC(=O)C(N)C(F)(F)F)CN(c2ccc(C(N)=O)c3ncccc23)C1 (single isomer, unassigned) [Compound 185]"
12,1 to 10,"COc1ccc(N2C[C@@H](C)C[C@@H](NC(=O)C(N)C(F)(F)F)C2)c2cccnc12 (single isomer, unassigned) [Compound 191]"
13,1 to 10,"COc1ccc(N2C[C@@H](C)C[C@@H](NC(=O)C(N)C(F)(F)F)C2)c2cccnc12 (single isomer, unassigned) [Compound 192]"
14,1 to 10,"C[C@H]1C[C@@H](NC(=O)C(N)C(F)(F)F)CN(c2ccc(C(F)(F)F)c3ncccc23)C1 (single isomer, unassigned) [Compound 197]"
15,< 1,"C[C@H]1C[C@@H](NC(=O)C(N)C(F)(F)F)CN(c2ccc(C(F)(F)F)c3ncccc23)C1 (single isomer, unassigned) [Compound 198]"
16,1 to 10,"C[C@H]1C[C@@H](NC(=O)C(N)C(F)(F)F)CN(c2ccc(C(F)F)c3ncccc23)C1 (single isomer, unassigned) [Compound 207]"
17,< 1,"C[C@H]1C[C@@H](NC(=O)C(N)C(F)(F)F)CN(c2ccc(C(F)F)c3ncccc23)C1 (single isomer, unassigned) [Compound 208]"
18,1 to 10,"CC1(C)C[C@@H](NC(=O)C(N)C(F)(F)F)CN(c2ccc(C#N)c3nccnc23)C1 (single isomer, unassigned) [Compound 211]"
19,1 to 10,"CC1(C)C[C@@H](NC(=O)C(N)C(F)(F)F)CN(c2ccc(C#N)c3nccnc23)C1 (single isomer, unassigned) [Compound 212]"
20,1 to 10,"CN1CCC(NC2CC(C(F)(F)F)CN(c3ccc(C#N)c4nccnc34)C2)C1=O (single isomer, unassigned) [Compound 224]"
21,1 to 10,"CN1CCC(NC2CC(C(F)(F)F)CN(c3ccc(C#N)c4nccnc34)C2)C1=O (single isomer, unassigned) [Compound 225]"
